Values quoted from earlier work, collected in PMC10671431, “New Derivatives of N-Hydroxybutanamide: Preparation, MMP Inhibition, Cytotoxicity, and Antitumor Activity” (International Journal of Molecular Sciences, 2023).
Read-outs that look alike come from different tables or passages of the source.

How the values were obtained:
[1] = tested on: hormone-sensitive prostate cancer G subline of Dunning tumor; design: method as in PMID 16096433; conditions: rats; cited from earlier work
[2] = tested on: human MV522 lung cancer cells in nude mice; design: method as in PMID 10430098; conditions: cited from earlier work
[3] = tested on: human malignant glioma cells U-87; design: method as in PMID 10213221; conditions: cited from earlier work
[4] = tested on: Lewis lung carcinoma; design: method as in PMID 9247252; conditions: cited from earlier work
[5] = tested on: pancreatic adenocarcinoma cells Capan1; design: method as in PMID 10767785; conditions: 72 h of exposure, cited from earlier work
[6] = tested on: pancreatic adenocarcinoma HPAC cells; design: method as in PMID 9224409; conditions: 4000 ng/mL (8.37 μM), 24 h of exposure; cited from earlier work
[7] = tested on: pancreatic adenocarcinoma cells AsPC1; design: method as in PMID 10767785; conditions: 72 h of exposure, cited from earlier work
[8] = tested on: rat prostate cells derived from R3327-MatLyLu Dunning tumor; design: method as in PMID 10754522; conditions: 4000 ng/mL (8.37 μM), 48 h of exposure; cited from earlier work
[9] = tested on: pancreatic carcinoma cells CD18; design: method as in PMID 24022491; conditions: 5 μM, 24 h of exposure; cited from earlier work
[10] = tested on: pancreatic carcinoma cells MiaPaCa2; design: method as in PMID 24022491; conditions: 5 μM, 24 h of exposure; cited from earlier work
[11] = tested on: human glioma U-251 cells; design: method as in PMID 10048980; conditions: 10 μM, 96 h of exposure; cited from earlier work
[12] = tested on: Shionogi hormone-responsive breast carcinoma cells; design: method as in PMID 8347186; conditions: 156 μg/mL (326.61 μM), 96 h of exposure; cited from earlier work
[13] = tested on: B16-BL6 melanoma; design: method as in PMID 8050828; conditions: mice with B16-BL6 melanoma; cited from earlier work
[14] = tested on: WM266-4 melanoma cells in nude mice; design: method as in PMID 27687955; conditions: cited from earlier work
[15] = tested on: MMP-1; design: method as in PMID 23541335, PMID 16538215; conditions: cited from earlier work
[16] = tested on: MMP-8; design: method as in PMID 23541335, PMID 16538215; conditions: cited from earlier work
[17] = tested on: MMP-13; design: method as in PMID 23541335, PMID 16538215; conditions: cited from earlier work
[18] = concentrations up to 10,000 ng/mL (20.94 μM)
[19] = higher concentrations (up to 100,000 ng/mL or 209.36 μM)

O=C1NC(=O)C(c2ccc(-c3ccccc3)cc2)(N2CCN(c3ccc([N+](=O)[O-])cc3)CC2)C(=O)N1 [RO 28-2653]
tumor growth [1]: inhibit the growth

CC1(C)SCCN(S(=O)(=O)c2ccc(Oc3ccncc3)cc2)[C@H]1C(=O)NO [Prinomastat]
tumor growth [2]: inhibit the growth
concentrations toxic to cells [3]: above 100 μM
tumor growth [4]: inhibit the growth

CNC(=O)[C@H](Cc1ccccc1)NC(=O)[C@H](CC(C)C)[C@H](CSc1cccs1)C(=O)NO [Batimastat]
toxicity to cells [5, 18]: no toxicity
toxicity to cells [5, 19]: only mild toxicity
inhibition of cell growth [6]: inhibit the growth
toxicity to cells [7, 18]: no toxicity
toxicity to cells [7, 19]: only mild toxicity
inhibition of cell growth [8]: inhibit the growth
toxicity to cells [9]: toxic
toxicity to cells [10]: toxic
reduction in cell viability [11]: 20–40%
effect on cell density [12]: no apparent effect
tumor growth [13]: inhibit tumor growth

Nc1ccc(Oc2ccc(S(=O)(=O)CC3CS3)cc2)cc1 (stereo not shown) [ND-322]
tumor growth [14]: inhibited the growth

O=C(C[C@H](CSc1ccccc1)C(=O)O)c1ccc(-c2ccc(Cl)cc2)cc1 [tanomastat]
inhibition of MMP-1 [15]: does not inhibit
inhibition of MMP-8 [16]: does not inhibit
inhibition of MMP-13 [17]: does not inhibit
